# In patent publication US12441725B2, “ISO-citrate dehydrogenase (IDH) inhibitor” (ZHEJIANG METON PHARMACEUTICAL CO., LTD, priority 2019, dated 2025):
# Experiments:
# IDH1 R132H = target: T1, IDH1 R132H (Homo sapiens, UniProt O75874, R132H); test: Biochemical assay for IDH inhibition (NADPH fluorescence), mutant IDH1 R132H; details: 50 nM IDH1-R132H, 1 hour pre-incubation, in triplet
# T1 construct: 6xHis
# How it was run: (§1)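 The read-out was the linear-phase loss of NADPH fluorescence (340/460 nm) over 15 min, background-subtracted and normalized to DMSO wells, giving triplicate IC50 values. Beforehand, R132H (50 nM) or R132C (25 nM) was exposed to compound for 1 h at room temperature with 1.33 mM α-KG at pH 7.5, and the reaction was triggered by adding an 80 μM NADPH solution.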
# [1] = target: T2, IDH (endogenous IDH1 R132C) in HT1080 cell (Homo sapiens, UniProt O75874, R132C); test: Cell-based assay for IDH inhibition (decrease of D-2-HG) in HT1080 cells; details: human fibrosarcoma cell line HT1080, 16 hours treatment, D-2-HG by LC-MS, in triplet
# T2 construct: which harbor endogenous heterozygous IDH1 R132C and R132H mutation respectively and accumulate D-2-HG
# T2 sequence (O75874 2-414 R132C): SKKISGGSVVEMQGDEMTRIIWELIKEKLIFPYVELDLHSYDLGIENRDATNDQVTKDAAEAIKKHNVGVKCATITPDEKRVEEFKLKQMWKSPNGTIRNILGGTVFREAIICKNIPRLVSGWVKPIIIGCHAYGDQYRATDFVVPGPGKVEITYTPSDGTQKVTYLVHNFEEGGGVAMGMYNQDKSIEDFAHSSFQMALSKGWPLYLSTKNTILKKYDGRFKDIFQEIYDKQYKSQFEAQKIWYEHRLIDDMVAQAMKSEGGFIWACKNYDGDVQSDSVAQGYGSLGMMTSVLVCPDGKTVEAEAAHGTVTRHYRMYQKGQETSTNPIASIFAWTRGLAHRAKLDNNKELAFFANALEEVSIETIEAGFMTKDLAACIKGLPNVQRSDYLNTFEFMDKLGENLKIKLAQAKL
# How it was run: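 LC-MS/MS quantification of D-2-HG, normalized to glutamate, follows a 16 h compound exposure of IDH1 R132C HT1080 cells in DMEM with 10% FBS. Extraction uses pre-chilled 40% methanol/40% acetonitrile in water. Triplicate determinations; IC50 from D-2-HG levels relative to DMSO-treated cells.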
# IDH1 R132C = target: T3, IDH1 R132C (Homo sapiens, UniProt O75874, R132C); test: Biochemical assay for IDH inhibition (NADPH fluorescence), mutant IDH1 R132C; details: 25 nM IDH1-R132C, 1 hour pre-incubation, in triplet
# T3 construct: 6xHis
# T3 sequence (O75874 whole entry R132C): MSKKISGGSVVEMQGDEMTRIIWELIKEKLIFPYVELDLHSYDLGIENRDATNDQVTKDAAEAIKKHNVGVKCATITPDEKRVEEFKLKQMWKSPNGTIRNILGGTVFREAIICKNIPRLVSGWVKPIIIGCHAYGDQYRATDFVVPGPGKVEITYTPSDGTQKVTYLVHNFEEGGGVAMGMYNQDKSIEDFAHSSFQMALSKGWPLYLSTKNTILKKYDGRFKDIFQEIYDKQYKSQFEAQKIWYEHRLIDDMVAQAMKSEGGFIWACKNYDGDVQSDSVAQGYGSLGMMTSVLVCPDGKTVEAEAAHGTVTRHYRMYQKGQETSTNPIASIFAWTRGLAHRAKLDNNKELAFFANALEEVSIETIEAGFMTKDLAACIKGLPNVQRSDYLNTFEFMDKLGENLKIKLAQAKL
# How it was run: as §1
# T1 sequence (O75874 whole entry R132H): as the sequence (O75874 whole entry R132C) above, with C132H counted along it
Structure (SMILES),IC50 (IDH1 R132H) [nM],IC50 [1] [nM],IC50 (IDH1 R132C) [nM]
"CCN1Cc2c(ccnc2N[C@@H](C)c2ccc(Oc3ccc4c(c3)cc(C)n4C)c(F)c2)C1=O [Compound 11, (S)-4-((1-(4-((1,2-dimethyl-1H-indol-5-yl)oxy)-3-fluorophenyl)ethyl)amino)-2-ethyl-2,3-dihydro-1H-pyrrolo[3,4-c]pyridin-1-one]",100 to 500,> 1000,100 to 500
"CCN1Cc2c(ccnc2N[C@@H](C)c2ccc(-c3ccnc(C4CCC4)c3)c(F)c2)C1=O [Compound 77, (S)-4-((1-(4-(2-cyclobutylpyridin-4-yl)-3-fluorophenyl)ethyl)amino)-2-ethyl-2,3-dihydro-1H-pyrrolo[3,4-c]pyridin-1-one]",100 to 500,500 to 1000,100 to 500
"CCN1Cc2c(ccnc2N[C@@H](C)c2cc(F)c(-c3ccnc(-c4cccnc4)c3)cc2F)C1=O [Compound 99, (S)-4-((1-(4-([2,3′-bipyridin]-4-yl)-2,5-difluorophenyl)ethyl)amino)-2-ethyl-2,3-dihydro-1H-pyrrolo[3,4-c]pyridin-1-one]",> 1000,500 to 1000,> 1000
"CCN1Cc2c(ccnc2N[C@@H](C)c2cc(F)c(-c3cc(C(F)(F)F)ncc3OCOC)cc2F)C1=O [Compound 145, (S)-4-((1-(2,5-difluoro-4-(5-(methoxymethoxy)-2-(trifluoromethyl)pyridin-4-yl)phenyl)ethyl)amino)-2-ethyl-2,3-dihydro-1H-pyrrolo[3,4-c]pyridin-1-one]",< 100,100 to 500,< 100
"CCN1Cc2c(ccnc2N[C@@H](C)c2ccc(N(C)c3ccccc3)c(F)c2)C1=O [Compound 31, (S)-2-ethyl-4-((1-(3-fluoro-4-(methyl(phenyl)amino)phenyl)ethyl)amino)-2,3-dihydro-1H-pyrrolo[3,4-c]pyridin-1-one]",> 1000,> 1000,> 1000
"CCN1Cc2c(ccnc2N[C@@H](C)c2cc(F)c(-c3ccnc(C(C)(C)C#N)c3)cc2F)C1=O [Compound 154, (S)-2-(4-(4-(1-((2-ethyl-1-oxo-2,3-dihydro-1H-pyrrolo[3,4-c]pyridin-4-yl)amino)ethyl)-2,5-difluorophenyl)pyridin-2-yl)-2-methylpropanenitrile]",100 to 500,100 to 500,500 to 1000
"COCCN1Cc2c(ccnc2N[C@@H](C)c2cc(F)c(-c3ccnc(C(C)(C)C)c3)cc2F)C1=O [Compound 158, (S)-4-((1-(4-(2-(tert-butyl)pyridin-4-yl)-2,5-difluorophenyl)ethyl)amino)-2-(2-methoxyethyl)-2,3-dihydro-1H-pyrrolo[3,4-c]pyridin-1-one]",100 to 500,> 1000,> 1000
"CCN1Cc2c(N[C@@H](C)c3ccc(Oc4ccc(C)cc4)c(F)c3)ncnc2C1=O [Compound 65, 6-ethyl-4-[[(1S)-1-[3-fluoro-4-(4-methylphenoxy)phenyl]ethyl]amino]-5H-pyrrolo[3,4-d]pyrimidin-7-one]",> 1000,100 to 500,> 1000
"CCN1Cc2c(ccnc2N[C@@H](C)c2ccc(-c3ccc4c(ccn4C)c3)c(F)c2)C1=O [Compound 72, (S)-2-ethyl-4-((1-(3-fluoro-4-(1-methyl-1H-indol-5-yl)phenyl)ethyl)amino)-2,3-dihydro-1H-pyrrolo[3,4-c]pyridin-1-one]",100 to 500,> 1000,500 to 1000
"CCN1Cc2c(ccnc2N[C@@H](C)c2cc(F)c(-c3cc(C(C)(C)F)c(F)cn3)cc2F)C1=O [Compound 137, (S)-4-((1-(2,5-difluoro-4-(5-fluoro-4-(2-fluoropropan-2-yl)pyridin-2-yl)phenyl)ethyl)amino)-2-ethyl-2,3-dihydro-1H-pyrrolo[3,4-c]pyridin-1-one]",< 100,< 100,< 100
"CCN1Cc2c(ccnc2N[C@@H](C)c2ccc(-c3ccnc(CC4CC4)c3)c(F)c2)C1=O [Compound 79, (S)-4-((1-(4-(2-(cyclopropylmethyl)pyridin-4-yl)-3-fluorophenyl)ethyl)amino)-2-ethyl-2,3-dihydro-1H-pyrrolo[3,4-c]pyridin-1-one]",100 to 500,500 to 1000,100 to 500
"CCN1Cc2c(ccnc2N[C@@H](C)c2ccc(-c3ccnc(C(F)(F)F)c3)c(F)c2)C1=O [Compound 34, (S)-2-ethyl-4-((1-(3-fluoro-4-(2-(trifluoromethyl)pyridin-4-yl)phenyl)ethyl)amino)-2,3-dihydro-1H-pyrrolo[3,4-c]pyridin-1-one]",> 1000,> 1000,> 1000
"CCN1Cc2c(ccnc2N[C@@H](C)c2cc(F)c(-c3cc(C(C)(C)C)ccn3)cc2F)C1=O [Compound 108, (S)-4-((1-(4-(4-(tert-butyl)pyridin-2-yl)-2,5-difluorophenyl)ethyl)amino)-2-ethyl-2,3-dihydro-1H-pyrrolo[3,4-c]pyridin-1-one]",< 100,< 100,< 100
"CCN1Cc2c(ccnc2N[C@@H](C)c2cc(F)c(-c3cc(C(C)(C)F)cc(C)n3)cc2F)C1=O [Compound 113, (S)-4-((1-(2,5-difluoro-4-(4-(2-fluoropropan-2-yl)-6-methylpyridin-2-yl)phenyl)ethyl)amino)-2-ethyl-2,3-dihydro-1H-pyrrolo[3,4-c]pyridin-1-one]",< 100,< 100,< 100
"CCN1Cc2c(ccnc2N[C@@H](C)c2cc(F)c(OC3CC(C)CC(C)(C)C3)cc2F)C1=O (stereo partly drawn) [Compound 22, 4-(((1S)-1-(2,5-difluoro-4-((3,3,5-trimethylcyclohexyl)oxy)phenyl)ethyl)amino)-2-ethyl-2,3-dihydro-1H-pyrrolo[3,4-c]pyridin-1-one]",< 100,< 100,< 100
"CCN1Cc2c(ccnc2N[C@@H](C)c2cc(F)c(-c3cc(C(C)(C)F)cc(O)n3)cc2F)C1=O [Compound 156, (S)-4-((1-(2,5-difluoro-4-(4-(2-fluoropropan-2-yl)-6-hydroxypyridin-2-yl)phenyl)ethyl)amino)-2-ethyl-2,3-dihydro-1H-pyrrolo[3,4-c]pyridin-1-one]",100 to 500,100 to 500,500 to 1000
"CCN1Cc2c(ccnc2N[C@H](C)c2ccc(Oc3ccccc3)c(F)c2)C1=O [Compound 12, (R)-2-ethyl-4-((1-(3-fluoro-4-phenoxyphenyl)ethyl)amino)-2,3-dihydro-1H-pyrrolo[3,4-c]pyridin-1-one]",> 1000,> 1000,> 1000
"CCN1Cc2c(ccnc2N[C@@H](C)c2cc(F)c(-c3cc(OC(C)(C)C)ncc3C)cc2F)C1=O [Compound 151, (S)-4-((1-(4-(2-(tert-butoxy)-5-methylpyridin-4-yl)-2,5-difluorophenyl)ethyl)amino)-2-ethyl-2,3-dihydro-1H-pyrrolo[3,4-c]pyridin-1-one]",< 100,< 100,100 to 500
"CCN1Cc2c(ccnc2N[C@@H](C)c2ccc(Cc3ccccc3)c(F)c2)C1=O [Compound 52, (S)-4-((1-(4-benzyl-3-fluorophenyl)ethyl)amino)-2-ethyl-2,3-dihydro-1H-pyrrolo[3,4-c]pyridin-1-one]",100 to 500,> 1000,100 to 500
